Laboratory results reported in ChEMBL document CHEMBL1127279, “1,3-Oxazino[4,5-b]indole-2,4-(1H,9H)-diones and 5,6-dimethylpyrrolo-[2,3-d]-1,3-oxazin-2,4-(1H,7H)-diones as serine protease inhibitors” (Bioorg Med Chem Lett, 1994).

What was measured:
[1] = molecular target: T1, Neutrophil elastase (Homo sapiens, UniProt P08246); test: In vitro inhibition of human leukocyte elastase.
T1 sequence (P08246 whole entry): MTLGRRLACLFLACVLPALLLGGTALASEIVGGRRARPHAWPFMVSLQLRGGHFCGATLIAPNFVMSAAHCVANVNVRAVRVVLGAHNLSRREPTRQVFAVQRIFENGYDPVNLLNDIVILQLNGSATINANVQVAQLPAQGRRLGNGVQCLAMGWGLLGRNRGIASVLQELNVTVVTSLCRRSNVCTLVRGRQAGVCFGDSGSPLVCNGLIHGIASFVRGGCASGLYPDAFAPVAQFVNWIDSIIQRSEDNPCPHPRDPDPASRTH

[2] = molecular target: Pancreatic elastase (Sus scrofa, UniProt P08419+P00772); test: Inhibitory activity against porcine pancreatic elastase using Suc-Ala-Ala-Ala-pNA (416 uM) as substrate; format: protein assay
[3] = molecular target: T2, Chymotrypsinogen A (Bos taurus, UniProt P00766); test: Inhibitory activity against chymotrypsin using Suc-Ala-Ala-Pro-Phe-pNA (416 uM) as substrate;No Inhibition; set-up: species or system Sus scrofa
[4] = molecular target: T2, Chymotrypsinogen A; test: Inhibitory activity against chymotrypsin using Suc-Ala-Ala-Pro-Phe-pNA (416 uM) as substrate; No Inhibition; set-up: species or system Sus scrofa
[5] = molecular target: T1, Neutrophil elastase; test: Inhibitory activity against human leukocyte elastase using MeO-Suc-Ala-Ala-Pro-Val-pNA (416 uM) as substrate;No Inhibition
[6] = molecular target: T1, Neutrophil elastase; test: Inhibitory activity against human leukocyte elastase using MeO-Suc-Ala-Ala-Pro-Val-pNA (416 uM) as substrate
[7] = molecular target: T2, Chymotrypsinogen A; test: Inhibitory activity against chymotrypsin using Suc-Ala-Ala-Pro-Phe-pNA (416 uM) as substrate; set-up: species or system Sus scrofa

SMILES | IC50 [1] [µM] | also measured
CC(=O)Oc1ccc2c(c1)c1c(=O)oc(=O)[nH]c1n2CCCc1ccccc1 | 305 | IC50 [2]: > 1000 µM
CC(=O)Oc1ccc2c(c1)c1c(=O)oc(=O)[nH]c1n2C1CCCCC1 | 454 | 
COC(Cn1c(C)c(C)c2c(=O)oc(=O)[nH]c21)OC |  | IC50 [4]: Not Active; IC50 [5]: Not Active
Cc1c(C)n(Cc2ccccn2)c2[nH]c(=O)oc(=O)c12 |  | IC50 [5]: Not Active
COc1ccc2c(c1)c1c(=O)oc(=O)[nH]c1n2CCc1ccccc1 |  | IC50 [6]: > 1000 µM
CCCCn1c(C)c(C)c2c(=O)oc(=O)[nH]c21 | > 1000 | 
CCCn1c(C)c(C)c2c(=O)oc(=O)[nH]c21 |  | IC50 [4]: Not Active; IC50 [5]: Not Active
CC(=O)Oc1ccc2c(c1)c1c(=O)oc(=O)[nH]c1n2CCc1ccccc1 | 92 | IC50 [2]: 833 µM
Cc1c(C)n(CCCc2ccccc2)c2[nH]c(=O)oc(=O)c12 |  | IC50 ([5]; read-out: IC50): 895 µM
Cc1c(C)n(Cc2ccccc2)c2[nH]c(=O)oc(=O)c12 |  | IC50 [5]: Not Active
Cc1c(C)n(CCc2ccccc2)c2[nH]c(=O)oc(=O)c12 |  | IC50 [5]: Not Active
COc1ccc2c(c1)c1c(=O)oc(=O)[nH]c1n2CCCc1ccccc1 |  | IC50 [6]: 989 µM
Cc1c(C)n(C2CCCCC2)c2[nH]c(=O)oc(=O)c12 | > 1000 | 
COCCn1c(C)c(C)c2c(=O)oc(=O)[nH]c21 |  | IC50 [4]: Not Active; IC50 [5]: Not Active

The next lines start with results.

IC50 [1] [µM] | SMILES | also measured
> 1000 | CCCn1c2ccc(OC)cc2c2c(=O)oc(=O)[nH]c21 | 
75 | CC(=O)Oc1ccc2c(c1)c1c(=O)oc(=O)[nH]c1n2Cc1ccccc1 | 
810 | CCCCn1c2ccc(OC(C)=O)cc2c2c(=O)oc(=O)[nH]c21 | IC50 [2]: > 1000 µM
742 | COC(Cn1c2ccc(OC(C)=O)cc2c2c(=O)oc(=O)[nH]c21)OC | 
> 1000 | COCCn1c2ccc(OC(C)=O)cc2c2c(=O)oc(=O)[nH]c21 | IC50 [3]: Not Active
> 1000 | COc1ccc2c(c1)c1c(=O)oc(=O)[nH]c1n2Cc1ccccc1 | 
> 1000 | COc1ccc2c(c1)c1c(=O)oc(=O)[nH]c1n2CC(OC)OC | 
> 1000 | COCCn1c2ccc(OC)cc2c2c(=O)oc(=O)[nH]c21 | IC50 [4]: Not Active
292 | CC(=O)Oc1ccc2c(c1)c1c(=O)oc(=O)[nH]c1n2Cc1ccccn1 | 
> 1000 | COc1ccc2c(c1)c1c(=O)oc(=O)[nH]c1n2Cc1ccccn1 | IC50 [7]: 512 µM
665 | CCCn1c2ccc(OC(C)=O)cc2c2c(=O)oc(=O)[nH]c21 | 
> 1000 | COc1ccc2c(c1)c1c(=O)oc(=O)[nH]c1n2C1CCCCC1 | 
> 1000 | CCCCn1c2ccc(OC)cc2c2c(=O)oc(=O)[nH]c21 | 
